In article PMC11131246, “Molecular determinants for brain targeting by peptides: a meta-analysis approach with experimental validation” (Fluids and Barriers of the CNS, 2024):
Residues, ends and D or L forms follow the SMILES beside them. *: point of attachment. NODAGA = O=C(O)CN1CCN(CC(=O)O)CCN(C(CCC(=O)*)C(=O)O)CC1; CF = 5(6)-carboxyfluorescein

Columns and labels:
[1] = Biodistribution of 67Ga-radiolabeled peptides; design: species or system mouse; conditions: female, CD1, mouse, in vivo, iv, 100 uCi, total radioactivity, Tissue distribution
Protocol: All animal experiments were performed in compliance with national and EU legislation for good practices on laboratory animal science. The animals were housed in a temperature and humidity-controlled environment with a 12 h light/12 h dark schedule. Biodistribution of radiolabeled peptides was performed on 7 weeks old CD1 female mice.
Animals were intravenously injected into the tail vein with 100 µL of a 25 µM saline solution of the ^67Ga-peptide with a radioactivity around 100 µCi. The mice were euthanized by cervical dislocation at 2 min and 1 h after injection. The dose administered and the radioactivity in the euthanized animals was measured using a dose calibrator (Carpintec CRC-15W, Ramsey, USA). The difference between the radioactivity in the injected and the euthanized animals was assumed to be due to excretion. Brain and tissues of interest without previous perfusion were dissected, washed, and weighed, and their radioactivity was measured using a γ counter (Hidex AMG, Hidex, Turku, Finland). The uptake in the brain and tissues of interest was calculated and expressed as a percentage of injected radioactivity dose per gram of tissue (% ID/g).

[2] = Analytical RP-HPLC retention time (used as indication of hydrophobicity); assay type: physicochemical; conditions: analytical reverse phase HPLC, UV chromatogram; free and CF-labelled peptides

Row | Compound | tissue uptake at 2 min ([1]; Blood) [%ID/g] | tissue uptake at 1 h ([1]; Blood) [%ID/g] | tissue uptake at 2 min ([1]; Bone) [%ID/g] | tissue uptake at 1 h ([1]; Bone) [%ID/g] | tissue uptake at 2 min ([1]; Brain (brain uptake)) [%ID/g] | tissue uptake at 1 h ([1]; Brain (brain uptake)) [%ID/g] | tissue uptake at 2 min ([1]; Heart) [%ID/g] | tissue uptake at 1 h ([1]; Heart) [%ID/g] | tissue uptake at 2 min ([1]; Intestine) [%ID/g] | tissue uptake at 1 h ([1]; Intestine) [%ID/g] | tissue uptake at 2 min ([1]; Kidney) [%ID/g] | tissue uptake at 1 h ([1]; Kidney) [%ID/g] | tissue uptake at 2 min ([1]; Liver) [%ID/g] | tissue uptake at 1 h ([1]; Liver) [%ID/g] | tissue uptake at 2 min ([1]; Lung) [%ID/g] | tissue uptake at 1 h ([1]; Lung) [%ID/g] | tissue uptake at 2 min ([1]; Muscle) [%ID/g] | tissue uptake at 1 h ([1]; Muscle) [%ID/g] | tissue uptake at 2 min ([1]; Spleen) [%ID/g] | tissue uptake at 1 h ([1]; Spleen) [%ID/g] | other results
1 | CC[C@H](C)[C@H](NC(=O)[C@H](C)NC(=O)CNC(=O)[C@H](CCCCN)NC(=O)[C@H](Cc1ccc(O)cc1)NC(=O)[C@H](CCCCN)NC(=O)CCC(C(=O)O)N1CCN(CC(=O)O)CCN(CC(=O)O)CC1)C(=O)N[C@H](C(=O)NCC(=O)N[C@@H](CC(N)=O)C(=O)N[C@H](C(=O)N[C@@H](CCCCN)C(N)=O)[C@@H](C)CC)[C@@H](C)CC (some centres unmarked) [67Ga-BBBpS_1, metal not drawn] ({NODAGA}-KYKGAIIGNIK-NH2) | 12.6 ± 2.1 | 0.5 ± 0.3 | 3.4 ± 0.3 | 0.3 ± 0.1 | 0.66 ± 0.16 | 0.04 ± 0.02 | 3.4 ± 1 | 0.3 ± 0.1 | 1.7 ± 0.3 | 0.2 ± 0.1 | 33.8 ± 3.8 | 2.4 ± 1.8 | 4.1 ± 0.8 | 0.3 ± 0.2 | 6.1 ± 0.7 | 2.5 ± 0.3 | 2.4 ± 0.2 | 0.3 ± 0.1 | 2 ± 0.2 | 0.2 ± 0.1 | tissue uptake at 2 min ([1]; Stomach): 1.4 ± 0.5 %ID/g; tissue uptake at 1 h ([1]; Stomach): 0.1 %ID/g
2 | CC[C@H](C)[C@H](NC(=O)[C@H](C)NC(=O)CNC(=O)[C@H](CO)NC(=O)[C@H](CCCNC(=N)N)NC(=O)[C@H](Cc1ccc(O)cc1)NC(=O)[C@H](CCCCN)NC(=O)CCC(C(=O)O)N1CCN(CC(=O)O)CCN(CC(=O)O)CC1)C(=O)N[C@H](C(=O)N[C@H](C(=O)NCC(=O)N[C@@H](Cc1ccc(O)cc1)C(N)=O)[C@@H](C)CC)[C@@H](C)O (some centres unmarked) [67Ga-BBBpS_2, metal not drawn] ({NODAGA}-KYRSGAITIGY-NH2) | 13.4 ± 3.8 | 1.4 ± 0.9 | 3.1 ± 0.1 | 0.8 ± 0.5 | 0.52 ± 0.23 | 0.09 ± 0.03 | 3.1 ± 0.7 | 0.8 ± 0.1 | 1.5 ± 0.2 | 0.4 | 18.1 ± 2.1 | 1.4 ± 0.6 | 3.5 ± 1.2 | 0.6 ± 0.2 | 6 ± 1.2 | 1.7 ± 0.4 | 2 ± 0.4 | 0.7 ± 0.1 | 1.9 ± 0.6 | 0.5 ± 0.2 | tissue uptake at 2 min ([1]; Stomach): 1 ± 0.1 %ID/g; tissue uptake at 1 h ([1]; Stomach): 0.2 ± 0.1 %ID/g
3 | CC[C@H](C)[C@H](NC(=O)[C@H](Cc1c[nH]cn1)NC(=O)CCC(C(=O)O)N1CCN(CC(=O)O)CCN(CC(=O)O)CC1)C(=O)N[C@@H](CCC(N)=O)C(=O)N[C@@H](CC(C)C)C(=O)N[C@@H](CO)C(=O)N1CCC[C@H]1C(=O)N[C@@H](Cc1ccccc1)C(=O)N[C@@H](CO)C(=O)N[C@@H](CCC(N)=O)C(=O)N[C@@H](CO)C(=O)N[C@@H](Cc1c[nH]c2ccccc12)C(=O)N[C@@H](CCCNC(=N)N)C(N)=O (some centres unmarked) [67Ga-BBBpS_5, metal not drawn] ({NODAGA}-HIQLSPFSQSWR-NH2) | 10.7 ± 2.1 | 1.2 ± 0.3 | 3.8 ± 0.5 | 0.6 ± 0.4 | 0.74 ± 0.01 | 0.05 ± 0.01 | 3.8 ± 0.8 | 0.5 | 2.2 ± 0.2 | 0.4 ± 0.2 | 22 ± 3.6 | 1.1 ± 0.6 | 5.2 ± 1.1 | 1 ± 0.4 | 7.8 ± 2.8 | 1.2 ± 0.2 | 3.1 ± 0.8 | 0.5 ± 0.2 | 2.2 ± 0.1 | 0.3 ± 0.1 | tissue uptake at 2 min ([1]; Stomach): 2.6 %ID/g; tissue uptake at 1 h ([1]; Stomach): 0.3 ± 0.4 %ID/g
4 | CC(C)C[C@H](NC(=O)[C@H](Cc1c[nH]c2ccccc12)NC(=O)[C@H](Cc1ccccc1)NC(=O)[C@H](CCC(N)=O)NC(=O)[C@H](C)NC(=O)[C@H](CO)NC(=O)[C@H](CC(=O)O)NC(=O)[C@@H]1CCCN1C(=O)[C@H](CCCNC(=N)N)NC(=O)[C@H](CC(N)=O)NC(=O)CCC(C(=O)O)N1CCN(CC(=O)O)CCN(CC(=O)O)CC1)C(=O)N[C@@H](Cc1c[nH]cn1)C(=O)N[C@@H](Cc1c[nH]cn1)C(N)=O (some centres unmarked) [67Ga-BBBpS_9, metal not drawn] ({NODAGA}-NRPDSAQFWLHH-NH2) | 11.6 ± 1.5 | 0.8 ± 0.4 | 3.4 ± 0.3 | 0.5 ± 0.1 | 0.61 ± 0.11 | 0.05 ± 0.01 | 3.3 ± 0.1 | 0.3 | 1.9 ± 0.2 | 0.2 | 30 ± 3.7 | 3.1 ± 0.3 | 4.7 ± 0.4 | 2.6 ± 0.3 | 5.4 ± 0.6 | 0.7 ± 0.1 | 2.6 ± 0.3 | 0.2 ± 0.1 | 2.6 ± 0.3 | 0.9 ± 0.2 | tissue uptake at 2 min ([1]; Stomach): 1.5 ± 0.2 %ID/g; tissue uptake at 1 h ([1]; Stomach): 0.3 ± 0.1 %ID/g
5 | CF-APWHLSSQYSRT-amide ({CF}-APWHLSSQYSRT-NH2) [CF-CTP, 5(6)-carboxyfluorescein-labelled CTP] |  |  |  |  |  |  |  |  |  |  |  |  |  |  |  |  |  |  |  |  | HPLC tR [2]: 8.45 min
6 | CF-EEGRLYMRYYSPTTRRYG-amide [CF-CPP(II), 5(6)-carboxyfluorescein-labelled CPP(II)] |  |  |  |  |  |  |  |  |  |  |  |  |  |  |  |  |  |  |  |  | HPLC tR [2]: 7.95 min
7 | CF-HIQLSPFSQSWR-amide [CF-HAP-2, 5(6)-carboxyfluorescein-labelled HAP-2] |  |  |  |  |  |  |  |  |  |  |  |  |  |  |  |  |  |  |  |  | HPLC tR [2]: 9.50 min
8 | CF-KKKKQPPKPKKPKTQEKKKKQPPKPKR-amide [CF-P1746c27, 5(6)-carboxyfluorescein-labelled P1746c27] |  |  |  |  |  |  |  |  |  |  |  |  |  |  |  |  |  |  |  |  | HPLC tR [2]: 4.23 min
